Source: US4055640A, “Compositions and methods for controlling the growth of bacteria, fungi and algae using certain derivatives of N-(2,2-dichlorovinyl)salicylamides” (Nippon Kayaku Co., Ltd., priority 1975, dated 1977)

Legend:
[1] = test system: bacteria gathered from circular water system; experiment: Degree of propagation on slime test boards (Example 19); type: cell-based; parameters: key: -: no propagation; +: the area of propagation is 1 - 25% on the slime test boards.; ++: the area of propagation is 26 - 50% on the slime test boards.; +++: the area of propagation is 51 - 75% on the slime test boards.; ++++: the area of propagation is 76 - 100% on the slime test boards
Method: (§1) Zero point zero two (0.02) part of active compounds in the form of 10% water soluble concentrate which was prepared by Example 13 was added into 100 parts of Waxman's liquid medium. Pieces of wood and iron (hereafter referred to as the slime test boards) were soaked into the Waxman's liquid medium. The bacteria which were gathered from circular water system were inoculated upon the Waxman's liquid medium and incubated at 27° C-34° C by shaking culture. The degree of propagation of the bacteria on the slime test boards was examined.
(§2) The growth-inhibiting activity of active compounds against the fungi and the green algae was also examined by the same method as mentioned above.
(§3) The degree of propagation of the bacteria, fungi or green algae on the slime test boards is defined in terms of the following symbols.

green algae = experiment: as above; type: cell-based; parameters: key: -: no propagation; +: the area of propagation is 1 - 25% on the slime test boards.; ++: the area of propagation is 26 - 50% on the slime test boards.; +++: the area of propagation is 51 - 75% on the slime test boards.; ++++: the area of propagation is 76 - 100% on the slime test boards
Method: as §1, §2, §3

fungi = experiment: as above; type: cell-based; parameters: key: -: no propagation; +: the area of propagation is 1 - 25% on the slime test boards.; ++: the area of propagation is 26 - 50% on the slime test boards.; +++: the area of propagation is 51 - 75% on the slime test boards.; ++++: the area of propagation is 76 - 100% on the slime test boards
Method: as §1, §2, §3

Pseudomonas fluorescens = experiment: Minimum inhibitory concentration, dilution methods (Example 14); type: cell-based; conditions: (1) potato-dextrose agar dilution method
Excerpt: (§4) Bacteriocidal activity and fungicidal activity of the active compounds of the present invention were examined by potato-dextrose agar dilution method, [2] waxman's liquid medium dilution method or [3] glucose bouillon medium dilution method. The results are shown in Table 4 below as the minimum inhibitory concentration (the minimum concentration of active compound found to produce 100% control of the test bacteria and fungi).

Cladosporium harbarum = experiment: as above; type: cell-based; conditions: (1) potato-dextrose agar dilution method
Excerpt: as §4

Escherichia coli = experiment: as above; type: cell-based; conditions: (3) glucose bouillon medium dilution method
Excerpt: as §4

Penicillium Citrinum [2] = experiment: as above; type: cell-based; conditions: (1) potato-dextrose agar dilution method
Excerpt: as §4

Staphylococcus aureus [3] = experiment: as above; type: cell-based; conditions: (3) glucose bouillon medium dilution method
Excerpt: as §4

Aspergillus niger [4] = experiment: as above; type: cell-based; conditions: (1) potato-dextrose agar dilution method
Excerpt: as §4

Bacillus subtilis [5] = experiment: as above; type: cell-based; conditions: (3) glucose bouillon medium dilution method
Excerpt: as §4

[6] = test system: Aspergillus niger, Penicillium citrinum, Cladosporium harbarum and chaetomium globosum; experiment: Degree of growth inhibition of fungi on treated beach plates (Example 17); type: cell-based; parameters: scale not given here; conditions: numerical rating, 2 weeks
Method: The emulsifiable concentrates which were prepared by Example 10 were diluted with water 400 times and 800 times to form emulsions.
The square plates of beach of which a side was 5 cm long and thickness was 5 mm were dipped into the emulsion for 2 minutes and dried for 24 hours at room temperature.
The square plates were placed on the surface of agar plates. The suspensions which contained spores of Aspergillus niger, Penicillium citrinum, Cladosporium harbarum and chaetomium globosum were respectively sprayed on the agar plates and the square plates.
The test fungi were cultivated in the incubator at the humidity of 95% and the temperature of 28° C for 2 weeks.
The degree of growth inhibition is defined in terms of the following numerical ratings.

summer orange seedlings = experiment: Phytotoxicity on summer orange seedlings (Experimental Example 6); type: in vivo; conditions: 1,000 ppm
[7] = test system: cucumber (variety: Azumamidori); experiment: Phytotoxicity on cucumber (Experimental Example 3); type: in vivo; conditions: 1,000 ppm
[8] = test system: Rhizoctonia solani (damping-off of cucumber); experiment: Exterminating test on damping-off of cucumber (Experimental Example 3); type: in vivo; conditions: 1,000 ppm, soil drench 50 ml per pot, 10 days
How it was run: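 Percentage of healthy seedlings was scored 10 days post inoculation, with PCNB 50% wettable powder run alongside as reference. Each pot held 10 Azumamidori cucumber seeds in field soil carrying 5 g Rhizoctonia solani. Soil drench: 50 ml water suspension of 80% wettable powder; greenhouse.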

[9] = test system: seedling blight of rice plant (pathogen Fusarium sp. and Rhizoctonia sp.); experiment: Exterminating test on seedling blight of rice plant (Experimental Example 1); type: in vivo; conditions: 0.25g/box a.i., 5% dust mixed with soil
How it was run: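 Pathogen-contaminated nursery soil (Fusarium sp., Rhizoctonia sp.) mixed with 5% compound dust at 5 g per box; Nihonbare rice sown, grown 7 days at 17° C in lighting chamber, then moved to field. Assessed 10 days later as percentage of healthy seedlings; commercial 4% hydroxyisoxazol dust run as control.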

[10] = test system: Fusarium wilt of cucumber; experiment: Exterminating test on Fusarium wilt of cucumber (Experimental Example 4); type: in vivo, Fusarium oxysporum f, cucumerinum; conditions: 500 ppm, soil drench 100 ml per pot, two weeks
How it was run: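 Pots of steam-sterilized soil mixed with 20 g infested soil, sown with 18 cucumber seeds (Tokiwazibai), drenched with 100 ml aqueous suspension of 80% wettable powder. Benlate 50% wettable powder run as control. Disease scored two weeks after planting as percentage of healthy seedlings.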

Penicillium Citrinum [11] = experiment: Growth inhibition zone around treated cotton cloth (Example 18); type: cell-based; conditions: emulsifiable concentrate diluted 1000 times
Method: (§5) The emulsifiable concentrates which were prepared by Example 10 were diluted with water 1000 times to form an emulsion. A cloth of cotton was soaked into each emulsion for 2 minutes. The clothes were dried at room temperature and cut into a square of which a side was 1 cm long. Each kind of test bacteria and fungi was inoculated, separately on plates of potato-agar and one square cloth was placed on each of such plates. Test bacteria and fungi were cultivated at 28° C for 4 days. The width of the region of growth-inhibition which was formed a circumference of the cloth was examined.

Staphylococcus aureus [12] = experiment: as above; type: cell-based; conditions: emulsifiable concentrate diluted 1000 times
Method: as §5

Aspergillus niger [13] = experiment: as above; type: cell-based; conditions: emulsifiable concentrate diluted 1000 times
Method: as §5

Bacillus subtilis [14] = experiment: as above; type: cell-based; conditions: emulsifiable concentrate diluted 1000 times
Method: as §5

SMILES: O=C(NC=C(Cl)Cl)c1ccccc1O [Compound No. 23]
- Degree of propagation ([1]; 7th day): -
- Degree of propagation ([1]; 14th day): -
- Degree of propagation ([1]; 21st day): + (the area of propagation is 1 - 25% on the slime test boards.)
- Degree of propagation (green algae; 7th day): -
- Degree of propagation (green algae; 14th day): -
- Degree of propagation (green algae; 21st day): + (the area of propagation is 1 - 25% on the slime test boards.)
- Degree of propagation (fungi; 7th day): -
- Degree of propagation (fungi; 14th day): -
- Degree of propagation (fungi; 21st day): -
- minimum inhibitory concentration (Pseudomonas fluorescens): 13 mc g/ml
- minimum inhibitory concentration (Cladosporium harbarum): 5 mc g/ml
- minimum inhibitory concentration (Escherichia coli): 60 mc g/ml
- minimum inhibitory concentration (Penicillium Citrinum [2]): 10 mc g/ml
- minimum inhibitory concentration (Staphylococcus aureus [3]): 10 mc g/ml
- minimum inhibitory concentration (Aspergillus niger [4]): 10 mc g/ml
- minimum inhibitory concentration (Bacillus subtilis [5]): 5 mc g/ml
- Degree of growth inhibition ([6]; 0.0125 %): 3
- Degree of growth inhibition ([6]; 0.025 %): 3
- Phytotoxicity (summer orange seedlings): Nil

SMILES: O=[N+]([O-])c1c(Cl)c(Cl)c(Cl)c(Cl)c1Cl [PCNB, pentachloronitro benzene, reference compound]
- Phytotoxicity [7]: Nil
- pest or weed control at 1000 ppm ([8]; Rhizoctonia solani, 240 h, read-out: Percentage of healthy seedlings): 45%

SMILES: O=C(NC=C(Cl)Cl)c1ccccc1[O-].O=C(NC=C(Cl)Cl)c1ccccc1[O-].[Zn+2] [compound 24]
- minimum inhibitory concentration (Cladosporium harbarum): 2.5 mc g/ml
- minimum inhibitory concentration (Escherichia coli): 40 mc g/ml
- minimum inhibitory concentration (Penicillium Citrinum [2]): 10 mc g/ml
- minimum inhibitory concentration (Staphylococcus aureus [3]): 5 mc g/ml
- minimum inhibitory concentration (Aspergillus niger [4]): 10 mc g/ml
- minimum inhibitory concentration (Bacillus subtilis [5]): 2.5 mc g/ml
- Percentage of healthy seedlings [9]: 71.3%
- Degree of growth inhibition ([6]; 0.0125 %): 3
- Degree of growth inhibition ([6]; 0.025 %): 3
- Percentage of healthy seedlings [10]: 47.0%
- width of the growth inhibition zone (Penicillium Citrinum [11]): 5 mm
- width of the growth inhibition zone (Staphylococcus aureus [12]): 8 mm
- width of the growth inhibition zone (Aspergillus niger [13]): 5 mm
- width of the growth inhibition zone (Bacillus subtilis [14]): 10 mm
- Percentage of healthy seedlings [8]: 100%
